According to patent US9963434B2, “N-arylmethyl sulfonamide negative modulators of NR2A” (LUC THERAPEUTICS, priority 2013, dated 2018):
pIC50: −log10 of the molar value. Read-outs that look alike come from different tables or passages of the source.

Molecular target: NR1/NR2A (Homo sapiens (Human), UniProt Q05586+Q12879)
Assay: FDSS Ca2+ influx inhibition assay in HEK293 cells expressing NR1/NR2A
Assay type: cell-based
Details: 3 μM glutamate, 3 μM glycine, 1 mM Ca2+
Experimental: Cell Culture and plating: HEK293 cells expressing NR1/NR2A (Chantest, Cleveland, Ohio) were grown to 70-80% confluency as an adherent monolayer in standard tissue culture flasks at 37° C., 5% CO2 per supplier's instructions.
After induction, cell culture medium was removed and cells were rinsed once with Ca^2+ and Mg^2+-free Dulbecco's phosphate buffered saline. Cells were then removed from the flask using TrypLE™ Express (Life Technologies) according to the manufacturer's instructions and collected to 50 ml centrifuge tubes. Following two washes in Ca^2+/Mg^2+-free HBSS with 20 mM HEPES (HHnoCa), cells were counted and viability assessed using trypan blue. To load cells with Ca^2+-sensitive dye, they were resuspended in fluo-8 plus Component B (AAT Bioquest Products) diluted in HHnoCa and incubated 15 minutes at 37° C., followed by 30 minutes at room temp (in dark). Cells were then washed and resuspended in HHnoCa to remove extracellular dye and plated in 384-well plates (Falcon, uncoated) at 20,000-30,000 cells/well in a final volume of 25 μL/well.
FDSS Assay: To each well of the plate, 10 μL test compound, control (MK801) or HHnoCa buffer was added to a final concentration of 10 μM with a final concentration of DMSO of 0.1%. Following 10 minutes pre-incubation in the dark, plates are loaded onto the Hamamatsu FDSS 6000. After collecting baseline fluorescence images, 3 μM glutamate, 3 μM glycine, and 1 mM Ca^2+ in HHnoCa buffer is added to each well, and Ca^2+ is recorded for 3 minutes. Data were processed by computing ratio of fluorescence at the end of data collection to baseline fluorescence to assess degree of Ca^2+ influx inhibition relative to that observed in MK801.

[1] = inhibition relative to MK801, read-out: NR2A IC50

Chain of NR1/NR2A (Q12879 23-1464, other chains not shown): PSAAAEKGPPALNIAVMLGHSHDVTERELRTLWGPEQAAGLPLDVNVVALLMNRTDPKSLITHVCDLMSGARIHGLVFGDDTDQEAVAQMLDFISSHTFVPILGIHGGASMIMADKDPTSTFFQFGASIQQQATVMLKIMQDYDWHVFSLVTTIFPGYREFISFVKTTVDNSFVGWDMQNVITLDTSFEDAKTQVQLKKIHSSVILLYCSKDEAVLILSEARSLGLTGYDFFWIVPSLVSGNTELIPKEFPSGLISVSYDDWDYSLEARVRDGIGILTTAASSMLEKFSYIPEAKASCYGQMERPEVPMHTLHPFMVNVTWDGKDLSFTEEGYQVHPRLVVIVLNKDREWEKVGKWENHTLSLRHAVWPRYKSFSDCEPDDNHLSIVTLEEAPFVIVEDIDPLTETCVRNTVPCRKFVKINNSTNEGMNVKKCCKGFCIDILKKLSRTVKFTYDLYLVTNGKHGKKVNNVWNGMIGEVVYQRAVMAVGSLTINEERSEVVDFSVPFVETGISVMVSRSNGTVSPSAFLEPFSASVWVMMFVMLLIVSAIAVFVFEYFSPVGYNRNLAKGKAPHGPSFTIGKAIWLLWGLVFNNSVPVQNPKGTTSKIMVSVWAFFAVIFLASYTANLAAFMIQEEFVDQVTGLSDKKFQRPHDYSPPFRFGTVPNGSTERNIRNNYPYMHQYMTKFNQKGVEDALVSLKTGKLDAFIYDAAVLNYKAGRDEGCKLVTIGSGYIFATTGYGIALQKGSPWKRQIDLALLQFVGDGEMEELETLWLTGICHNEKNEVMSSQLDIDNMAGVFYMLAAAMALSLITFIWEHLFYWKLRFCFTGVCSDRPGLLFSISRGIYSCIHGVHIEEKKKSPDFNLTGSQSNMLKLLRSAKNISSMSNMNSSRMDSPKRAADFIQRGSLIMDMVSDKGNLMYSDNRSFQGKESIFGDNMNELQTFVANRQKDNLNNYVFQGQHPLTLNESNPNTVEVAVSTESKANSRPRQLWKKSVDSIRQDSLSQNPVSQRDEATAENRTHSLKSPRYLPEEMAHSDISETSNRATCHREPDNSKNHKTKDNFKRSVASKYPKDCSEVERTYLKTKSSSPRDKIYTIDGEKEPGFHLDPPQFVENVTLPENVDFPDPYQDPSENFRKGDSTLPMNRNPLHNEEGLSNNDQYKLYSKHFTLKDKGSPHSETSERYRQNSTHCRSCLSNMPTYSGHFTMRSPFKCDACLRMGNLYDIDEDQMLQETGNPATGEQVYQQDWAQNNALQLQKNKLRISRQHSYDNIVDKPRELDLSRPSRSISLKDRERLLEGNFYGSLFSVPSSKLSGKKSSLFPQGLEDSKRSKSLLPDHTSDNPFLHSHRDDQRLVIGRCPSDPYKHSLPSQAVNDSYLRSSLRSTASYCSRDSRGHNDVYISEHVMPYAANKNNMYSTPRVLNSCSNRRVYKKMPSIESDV

SMILES	pIC50 (read-out: Binned Activity)	pIC50 [1]
Cc1ccc(CNC(=O)c2cnc(CNS(=O)(=O)c3ccc(F)c(Cl)c3)cn2)n1C [5-(3-chloro-4-fluorobenzenesulfon-amidomethyl)-N-[(1,5-dimethyl-1H-pyrrol-2-yl)methyl]pyrazine-2-carboxamide]	6.00 to 7.00	–
Cn1ccnc1CNC(=O)c1cnc(CNS(=O)(=O)c2ccc(F)c(Cl)c2)cn1 [5-(3-chloro-4-fluorobenzenesulfon-amidomethyl)-N-[(1-methyl-1H-imidazol-2-yl)methyl]pyrazine-2-carboxamide]	< 5.00	5.00
Cn1cnc(CNC(=O)c2cnc(CNS(=O)(=O)c3ccc(F)c(Cl)c3)cn2)c1 [5-(3-chloro-4-fluorobenzenesulfon-amidomethyl)-N-[(1-methyl-1H-imidazol-4-yl)methyl]pyrazine-2-carboxamide]	< 5.00	5.00
Cn1cnc(CNC(=O)c2ccc(CNS(=O)(=O)c3ccc(F)c(Cl)c3)cn2)c1 [5-(3-chloro-4-fluorobenzenesulfon-amidomethyl)-N-[(1-methyl-1H-imidazol-4-yl)methyl]pyridine-2-carboxamide]	< 5.00	5.00
Cn1cncc1CNC(=O)c1cnc(CNS(=O)(=O)c2ccc(F)c(Cl)c2)cn1 [5-(3-chloro-4-fluorobenzenesulfon-amidomethyl)-N-[(1-methyl-1H-imidazol-5-yl)methyl]pyrazine-2-carboxamide]	5.00 to 6.00	–
Cn1cncc1CNC(=O)c1ccc(CNS(=O)(=O)c2ccc(F)c(Cl)c2)cn1 [5-(3-chloro-4-fluorobenzenesulfon-amidomethyl)-N-[(1-methyl-1H-imidazol-5-yl)methyl]pyridine-2-carboxamide]	5.00 to 6.00	–
Cn1cc(CNC(=O)c2ccc(CNS(=O)(=O)c3ccc(F)c(Cl)c3)cn2)cn1 [5-(3-chloro-4-fluorobenzenesulfon-amidomethyl)-N-[(1-methyl-1H-pyrazol-4-yl)methyl]pyridine-2-carboxamide]	5.00 to 6.00	–
Cn1nccc1CNC(=O)c1cnc(CNS(=O)(=O)c2ccc(F)c(Cl)c2)cn1 [5-(3-chloro-4-fluorobenzenesulfon-amidomethyl)-N-[(1-methyl-1H-pyrazol-5-yl)methyl]pyrazine-2-carboxamide]	< 5.00	5.00
Cn1nccc1CNC(=O)c1ccc(CNS(=O)(=O)c2ccc(F)c(Cl)c2)cn1 [5-(3-chloro-4-fluorobenzenesulfon-amidomethyl)-N-[(1-methyl-1H-pyrazol-5-yl)methyl]pyridine-2-carboxamide]	< 5.00	5.00
Cn1cccc1CNC(=O)c1cnc(CNS(=O)(=O)c2ccc(F)c(Cl)c2)cn1 [5-(3-chloro-4-fluorobenzenesulfon-amidomethyl)-N-[(1-methyl-1H-pyrrol-2-yl)methyl]pyrazine-2-carboxamide]	5.00 to 6.00	–
Cn1cccc1CNC(=O)c1ccc(CNS(=O)(=O)c2ccc(F)c(Cl)c2)cn1 [5-(3-chloro-4-fluorobenzenesulfon-amidomethyl)-N-[(1-methyl-1H-pyrrol-2-yl)methyl]pyridine-2-carboxamide]	5.00 to 6.00	–
C[C@@H](NC(=O)c1cnc(CNS(=O)(=O)c2ccc(F)c(Cl)c2)cn1)c1cncs1 [5-(3-chloro-4-fluorobenzenesulfon-amidomethyl)-N-[(1R)-1-(1,3-thiazol-5-yl)ethyl]pyrazine-2-carboxamide]	< 5.00	–
C[C@@H](NC(=O)c1ccc(CNS(=O)(=O)c2ccc(F)c(Cl)c2)cn1)c1cncs1 [5-(3-chloro-4-fluorobenzenesulfon-amidomethyl)-N-[(1R)-1-(1,3-thiazol-5-yl)ethyl]pyridine-2-carboxamide]	< 5.00	5.00
COc1cc(CNC(=O)c2cnc(CNS(=O)(=O)c3ccc(F)c(Cl)c3)cn2)ccn1 [5-(3-chloro-4-fluorobenzenesulfon-amidomethyl)-N-[(2-methoxypyridin-4-yl)methyl]pyrazine-2-carboxamide]	6.00 to 7.00	–
